Measurements published in patent US6573230B1, “Liquid cleaning composition containing an effective biodegradable chelating agent” (Colgate-Palmolive Company, priority 2002, dated 2003).

Columns and labels:
[1] = pH / physical stability on ageing; format: physicochemical; conditions: stable pH and absence of discoloration
[2] = Ready biodegradability of the sequestering agent; conditions: sequestering agent of the composition: A EDDS, B gluconic acid, C IDS Na, D EDTA

Compound | pH Physical stability on ageing [1] | Biodegradability of sequestering agent (ready biodegradability) [2]
O=C(O)C[C@H](NCCN[C@@H](CC(=O)O)C(=O)O)C(=O)O [EDDS, trisodium ethylene diamine-N,N-disuccinate] | imparting product physical stability | biodegradable
O=C(O)CN(CCN(CC(=O)O)CC(=O)O)CC(=O)O [EDTA, ethylene diamine tetraacetate] |  | non-ready biodegradable
